Consider two compounds from patent publication US20140171431A1, “AZOLE HETEROCYCLIC COMPOUND, PREPARATION METHOD, PHARMACEUTICAL COMPOSITION AND USE” (priority 2011, published 2014).

Where two headings read alike, the source gives them in different places.

In one assay the target is T1, Lp-PLA2 in human serum (Homo sapiens, UniProt Q13093).
T1 construct: from tissue
T1 sequence (Q13093 22-441): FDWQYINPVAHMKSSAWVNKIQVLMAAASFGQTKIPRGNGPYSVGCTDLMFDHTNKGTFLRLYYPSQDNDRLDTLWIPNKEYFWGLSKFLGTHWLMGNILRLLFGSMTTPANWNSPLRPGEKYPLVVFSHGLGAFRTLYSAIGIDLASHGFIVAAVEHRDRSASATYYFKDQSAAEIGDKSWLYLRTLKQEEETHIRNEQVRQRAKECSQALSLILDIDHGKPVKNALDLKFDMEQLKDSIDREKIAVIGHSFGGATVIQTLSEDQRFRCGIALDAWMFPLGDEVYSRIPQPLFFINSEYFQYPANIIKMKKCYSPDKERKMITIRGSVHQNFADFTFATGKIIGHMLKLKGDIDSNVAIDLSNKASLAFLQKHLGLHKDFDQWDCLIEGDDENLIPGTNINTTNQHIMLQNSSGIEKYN
The assay can be described thus: In vitro inhibitory activity towards the enzyme Lp-PLA2 in human serum, [3H]PAF substrate. The class given is biochemical. As to conditions: 10 nM. The procedure, abridged: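 Human plasma was preincubated with compound 10 min at 37 °C in 50 mM HEPES, 150 mM NaCl, pH 7.4. Reaction started with 20 nM [3H]PAF, run 10 min at 37 °C, then extracted with CHCl3/MeOH (2:1); radioactivity of the supernatant was counted.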

In another assay the target is T2, Lp-PLA2 in rabbit serum (Oryctolagus cuniculus, UniProt G1SE06).
T2 construct: from tissue; host or cells: rabbit serum
T2 sequence (G1SE06 22-423): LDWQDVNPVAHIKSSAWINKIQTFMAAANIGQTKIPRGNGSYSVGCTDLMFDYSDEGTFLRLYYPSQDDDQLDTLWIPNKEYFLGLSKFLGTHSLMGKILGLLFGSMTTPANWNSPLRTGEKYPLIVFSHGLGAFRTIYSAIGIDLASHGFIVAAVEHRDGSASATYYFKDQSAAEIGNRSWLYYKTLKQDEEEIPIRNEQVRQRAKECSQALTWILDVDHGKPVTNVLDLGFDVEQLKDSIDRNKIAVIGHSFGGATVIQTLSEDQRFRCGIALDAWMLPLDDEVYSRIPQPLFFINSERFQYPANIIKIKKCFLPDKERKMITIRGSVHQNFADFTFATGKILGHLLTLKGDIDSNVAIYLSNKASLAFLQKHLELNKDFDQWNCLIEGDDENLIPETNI
The assay can be described thus: In vitro inhibitory activity towards the enzyme Lp-PLA2 in rabbit serum, [3H]PAF substrate. In kind it is biochemical. As to conditions: 100 nM.

Another assay deals with atherosclerotic plaque. To be noted: diabetic/hypercholesterolemic swine, Wilensky et al.; cited from earlier work.

As for `CN(CCN1CCCCC1)Cc1onc(Cn2c(SCc3ccc(F)cc3)nc(=O)c3c2CCC3)c1Cc1ccc(-c2ccc(C(F)(F)F)cc2)cc1` [Example 161, 2-(4-fluorobenzylthio)-1-((5-((methyl(2-(piperidin-1-yl)ethyl)amino)methyl)-4-((4′-(trifluoromethyl)biphenyl-4-yl)methyl)isoxazol-3-yl)methyl)-6,7-dihydro-1H-cyclopenta[d]pyrimidin-4(5H)-one], the inhibition at 0.01 µM on Lp-PLA2 in human serum (human serum, read-out: inhibition, %) is 100%; on Lp-PLA2 in human serum (read-out: inhibitory rate towards the human serum derived Lp-PLA2 enzyme) it was more than 80%. In addition, the inhibition at 0.1 µM on Lp-PLA2 in rabbit serum (rabbit serum, read-out: inhibition, %) is 99%; on Lp-PLA2 in rabbit serum (read-out: inhibitory rate towards the rabbit serum derived Lp-PLA2 enzyme), more than 90%.
In the case of `CCN(CC)CCN(Cc1ccc(-c2ccc(C(F)(F)F)cc2)cc1)C(=O)Cn1c(SCc2ccc(F)cc2)nc(=O)c2c1CCC2` [darapladib, Darapladib], in the assay on atherosclerotic plaque, the atherosclerotic plaque progression result is given as “remarkably reduced the atherosclerotic plaque progression”.
